From patent publication US9556169B2, “Compounds and compositions for the treatment of parasitic diseases” (NOVARTIS AG, priority 2012, dated 2017)
Read-outs that look alike come from different tables or passages of the source.

What was measured:
[1] = tested on: Plasmodium yoelii (17XNL) sporozoites; assay: Liver stage P. yoelii sporozoite invasion assay in HepG2-A16-CD81EGFP cells; type: cell-based
Text: Assay for Proliferation of Parasite in Infected Liver Cells
Compounds of the invention can be assayed to measure their capacity to inhibit proliferation of parasites in liver cells. The proliferation is quantified by determine the number of infected cells by immunofluorescence.
Due to the difficulty of successfully infecting immortalized human liver cell lines with the human malaria sporozoites (liver-stage parasite), rodent malaria sporozoites from Plasmodium yoelii (17XNL) and P. berghei (ANKA) are the preferred surrogate. Sporozoites are obtained from Anopheles stephensi mosquitoes supplied by the New York University Insectary, which ships the malaria-infected mosquitoes 10-13 days following the ingestion of an infective blood meal.
A transgenic HepG2 cell line expressing the tetraspanin CD81 receptor (HepG2-A16-CD81^EGFP) is used to increase the infectivity rate of rodent-malaria sporozoites into human cells. HepG2-A16-CD81^EGFP cells are stably transformed to express a GFP-CD81 fusion protein. A continuous in vitro culture of this line was maintained at 37° C. in 4% CO2 in complete media (CM) which contains: DMEM (Invitrogen, Carlsbad, USA) supplemented with 10% FCS, 0.29 mg/ml glutamine, 100 units penicillin and 100 μg/ml streptomycin (SigmaAldrich, USA).
Liver Stage P. yoelii Sporozoite Invasion Assay
Twenty to twenty-six hours prior to sporozoite infection, 7.5×10^3 HepG2-A16-CD81^EGFP cells are seeded into 384-well plates (Aurora 384 IQ-EB black plates with clear bottoms; 50 μl of 1.5×10^5 cells/ml in CM). These plates are incubated at 37° C. with 4% CO2 overnight. Two hours prior to infection, 50 nl of compound dissolved in DMSO (0.1% final DMSO concentration per well) were transferred with a PinTool (GNF Systems) into the assay plates (10 μM final concentration). A 1:3 serial dilution of atovaquone (10 μM at the highest final concentration) and wells treated only with DMSO were used as positive and negative controls, respectively.
Freshly dissected salivary glands from infected mosquitoes were homogenized in a glass tissue grinder, filtered twice through Nylon cell strainers (40 μm pore size, BD Falcon) and counted using a hemocytometer. The assay plate with HepG2-A16-CD81^EGFP cells and compound were then infected with 8×10^3 sporozoitesper well and the plates are subjected to a centrifugal force of 650×g to pellet the sporozoites onto the liver cell monolayer. The assay plate is incubated at 37° C. for 2 hours to permit sporozoite invasion, then the media is aspirated from the media plate, and replaced with 50 μl CM (containing a 5× concentration of penicillin/streptomycin; 500 units penicillin and 0.5 mg streptomycin per ml) per well. 50 nl of compound is re-introduced by PinTool and the assay plate incubated for 48 hours at 37° C. before quantification of infected cells by immunofluorescence.
Atovaquone and uninfected wells were used as controls on each plate. Two replicate plates are tested for each assay.
After fixing the cells by addition of 12.5 μl of 20% solution of paraformaldehyde (EMS, Hatfield, USA) to each assay well (4% final formaldehyde concentration), membranes were permeabilized with 0.5% Triton-X-100 (Thermo Fisher Scientific) and EEFs were stained using a mouse polyclonal serum raised against the Plasmodium yoelii heat shock protein 70 (PyHSP70), a DyLight 649 goat anti-mouse IgG, Fc(gamma) fragment specific secondary antibody (Jackson Immuno Research, Cat#115-495-071) and the Hoechst 33342 nucleic acid dye (Invitrogen, Carlsbad, USA). Stained EEFs were then quantified using the Opera Confocal High Content Screening System (Perkin Elmer, Waltham, USA). Images were collected using a 20× objective lens (20×/0.45 NA, LWD Plan Fluor, Olympus) at a binning of 2, using a 365 nm Xeon arc lamp illumination to detect the Hoechst-labeled nuclei and 635 nm laser line to excite DyLight649-labeled parasites. The image resolution yielded was approximately 0.66 μm/pixel (˜0.43 μm 2/pixel). […]

[2] = tested on: P. falciparum (NF54 or 3D7 strain); assay: P. falciparum proliferation assay in infected human blood cells (SYBR Green); type: cell-based; settings: Plasmodium falciparum
In short: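 Asexual NF54 or 3D7 parasites in O+ human erythrocytes (final 2.5% hematocrit, 0.3% parasitemia) exposed to compound for 72 h at 37 °C under 93% N2/4% CO2/3% O2. Lysis with SYBR Green I overnight at rt; fluorescence (ex 425/em 530 nm) tracks parasite DNA, giving EC50.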

[3] = values without * in Table 2, HepG2-A16-CD81EGFP liver cells, 48 hours, immunofluorescence, read-out: EC50 (nM), P. yoelii Sporozoite Invasion Assay
[4] = Erythrocyte, infected human erythrocytes, 72 hours, SYBR Green fluorescence, read-out: EC50 (nM), inhibitory efficacy in delaying P. falciparum proliferation in infected human blood cells
[5] = read-out: EC50, P. yoelii Sporozoite Invasion Assay

Row | SMILES | EC50 [1, 3] | EC50 [2, 4] | EC50 [1, 5] | EC50 ([2]; read-out: EC50, P. falciparum Proliferation Assay)
1 | CNC(=O)c1ccc(-c2cnn3ccc(C(=O)N(C)c4ccc(Cl)cc4)cc23)cc1 [Example 99, N-(4-Chlorophenyl)-N-methyl-3-(4-(methylcarbamoyl)phenyl)pyrazolo[1,5-a]pyridine-5-carboxamide] | 15 nM | 1 nM |  | 
2 | CNC(=O)c1ccc(-c2cnn3ccc(C(=O)N(C)c4ccc(Cl)cc4)cc23)cn1 [Example 109, N-(4-Chlorophenyl)-N-methyl-3-(6-(methylcarbamoyl)pyridin-3-yl)pyrazolo[1,5-a]pyridine-5-carboxamide] | 62 nM | 19 nM |  | 
3 | CNC(=O)c1ccc(-c2cnn3ccc(C(=O)N(CC4CC4)c4ccc(C#N)cn4)cc23)cc1 [Example 117, N-(5-Cyanopyridin-2-yl)-N-(cyclopropylmethyl)-3-(4-(methylcarbamoyl)phenyl)pyrazolo[1,5-a]pyridine-5-carboxamide] | 7 nM | 4 nM |  | 
4 | CNC(=O)c1ccc(-c2cnn3ccc(C(=O)N(c4ccc(C#N)cn4)C4CC4)cc23)cc1 [Example 93, N-(5-Cyanopyridin-2-yl)-N-cyclopropyl-3-(4-(methylcarbamoyl)phenyl)pyrazolo[1,5-a]pyridine-5-carboxamide] | 10 nM | 6 nM |  | 
5 | CN(C(=O)c1ccn2ncc(-c3ccc(C(=O)NC4CCNCC4)cc3)c2c1)c1ccc(C#N)cn1 [Example 113, N-(5-Cyanopyridin-2-yl)-N-methyl-3-(4-(piperidin-4-ylcarbamoyl)phenyl)pyrazolo[1,5-a]pyridine-5-carboxamide] | 1650 nM | 311 nM |  | 
6 | CN(C(=O)c1ccn2ncc(-c3ccc(C(N)=O)cc3)c2c1)c1ccc(C#N)cn1 [Example 32, 3-(4-carbamoylphenyl)-N-(5-cyanopyridin-2-yl)-N-methylpyrazolo[1,5-a]pyridine-5-carboxamide] |  |  | < 10 nM | < 5 nM
7 | CNCCNC(=O)c1ccc(-c2cnn3ccc(C(=O)N(C)c4ccc(C#N)cn4)cc23)cc1 [Example 114, N-(5-Cyanopyridin-2-yl)-N-methyl-3-(4-((2-(methylamino)ethyl)carbamoyl)phenyl)pyrazolo[1,5-a]pyridine-5-carboxamide] | 950 nM | 52 nM |  | 
8 | CNC(=O)c1ccc(-c2cnn3ccc(C(=O)N(CCO)c4ccc(C#N)cc4)cc23)cc1 [Example 110, N-(4-Cyanophenyl)-N-(2-hydroxyethyl)-3-(4-(methylcarbamoyl)phenyl)pyrazolo[1,5-a]pyridine-5-carboxamide] | 253 nM | 54 nM |  | 
9 | CNC(=O)c1ccc(-c2cnn3ccc(C(=O)N(c4ccc(C#N)cn4)C(C)(C)C)cc23)cc1 [Example 119, N-(tert-Butyl)-N-(5-cyanopyridin-2-yl)-3-(4-(methylcarbamoyl)phenyl)pyrazolo[1,5-a]pyridine-5-carboxamide] | 56 nM | 95 nM |  | 
10 | CNC(=O)c1ccc(-c2cnn3ccc(C(=O)N(C)c4ccc(C(F)(F)F)cc4)cc23)cc1 [Example 103, N-Methyl-3-(4-(methylcarbamoyl)phenyl)-N-(4-(trifluoromethyl)phenyl)pyrazolo[1,5-a]pyridine-5-carboxamide] | 62 nM | 3 nM |  | 
11 | CN(C(=O)c1ccn2ncc(-c3ccc(C(=O)NCCO)cc3)c2c1)c1ccc(C#N)cn1 [Example 102, N-(5-Cyanopyridin-2-yl)-3-(4-((2-hydroxyethyl)carbamoyl)phenyl)-N-methylpyrazolo[1,5-a]pyridine-5-carboxamide] | 660 nM | 10 nM |  | 
12 | CNC(=O)c1ccc(-c2cnn3ccc(C(=O)N(c4ccc(C#N)cc4)C4CC4)cc23)cc1 [Example 118, N-(4-Cyanophenyl)-N-cyclopropyl-3-(4-(methylcarbamoyl)phenyl)pyrazolo[1,5-a]pyridine-5-carboxamide] | 1 nM | 3 nM |  | 
13 | CN(C)CCNC(=O)c1ccc(-c2cnn3ccc(C(=O)N(C)c4ccc(C#N)cn4)cc23)cc1 [Example 115, N-(5-cyanopyridin-2-yl)-3-(4-((2-(dimethylamino)ethyl)carbamoyl)phenyl)-N-methylpyrazolo[1,5-a]pyridine-5-carboxamide] | 79 nM | 155 nM |  | 
14 | CN(C(=O)c1ccn2ncc(-c3ccc(C(N)=O)cc3)c2c1)c1ccc(Cl)cc1 [Example 100, 3-(4-Carbamoylphenyl)-N-(4-chlorophenyl)-N-methylpyrazolo[1,5-a]pyridine-5-carboxamide] | 20 nM | 9 nM |  | 
15 | CNC(=O)c1ccc(-c2cnn3ccc(C(=O)N(C)c4ccc(OCCN)cn4)cc23)cc1 [Example 111, N-(5-(2-Aminoethoxyl)pyridin-2-yl)-N-methyl-3-(4-(methylcarbamoyl)phenyl)pyrazolo[1,5-a]pyridine-5-carboxamide] | > 10000 nM | 6300 nM |  | 
16 | CNC(=O)c1ccc(-c2cnn3ccc(C(=O)N(c4ccc(Cl)cc4)C4CC4)cc23)cc1 [Example 116, N-(4-Chlorophenyl)-N-cyclopropyl-3-(4-(methylcarbamoyl)phenyl)pyrazolo[1,5-a]pyridine-5-carboxamide] | 3 nM | 1 nM |  | 
17 | CNC(=O)c1ccc(-c2cnn3ccc(C(=O)N(c4ccc(C#N)cn4)C(C)C)cc23)cc1 [Example 91, N-(5-cyanopyridin-2-yl)-N-isopropyl-3-(4-(methylcarbamoyl)phenyl)pyrazolo[1,5-a]pyridine-5-carboxamide] | 23 nM | 13 nM |  | 
18 | CN(C(=O)c1ccn2ncc(-c3ccc(C(N)=O)cc3)c2c1)c1ccc(C#N)cc1 [Example 19, 3-(4-carbamoylphenyl)-N-(4-cyanophenyl)-N-methylpyrazolo[1,5-a]pyridine-5-carboxamide] |  |  | < 10 nM | 
19 | CN(C(=O)c1ccn2ncc(-c3ccc(C(F)(F)F)cc3)c2c1)c1ccc(C#N)cc1 [Example 1, N-(4-cyanophenyl)-N-methyl-3-(4-(trifluoromethyl)phenyl)pyrazolo[1,5-a]pyridine-5-carboxamide] |  |  | < 10 nM | 
20 | CCN(C(=O)c1ccn2ncc(-c3ccc(C(=O)NC)cc3)c2c1)c1ccc(C#N)cn1 [Example 90, N-(5-Cyanopyridin-2-yl)-N-ethyl-3-(4-(methylcarbamoyl)phenyl)pyrazolo[1,5-a]pyridine-5-carboxamide] | 39 nM | 8 nM |  | 
21 | CN(C(=O)c1ccn2ncc(-c3ccc(C(=O)NCCN)cc3)c2c1)c1ccc(C#N)cn1 [Example 104, 3-(4-((2-Aminoethyl)carbamoyl)phenyl)-N-(5-cyanopyridin-2-yl)-N-methylpyrazolo[1,5-a]pyridine-5-carboxamide] | 1200 nM | 125 nM |  | 
22 | CNC(=O)c1ccc(-c2cnn3ccc(C(=O)N(c4ccc(C#N)cn4)C4CCC4)cc23)cc1 [Example 112, N-(5-Cyanopyridin-2-yl)-N-cyclobutyl-3-(4-(methylcarbamoyl)phenyl)pyrazolo[1,5-a]pyridine-5-carboxamide] | 9 nM | 4 nM |  | 
